# Assay results as given in ChEMBL document CHEMBL3885881, “DrugMatrix”.
# Species: Rattus norvegicus
# Assay: DrugMatrix - Regimen: Daily Repeat
# Format: toxicity, organism-based, Sprague-Dawley
# Parameters: regimen Daily Repeat, gender Male, age 6-8 weeks
# Details: in vivo, po, route oral GAVAGE, […]; for ABSOLUTE BASOPHIL / ABSOLUTE EOSINOPHIL / ABSOLUTE LYMPHOCYTE / ABSOLUTE MONOCYTE / ABSOLUTE SEGMENTED NEUTROPHIL / BASOPHIL / EOSINOPHIL / ERYTHROCYTE COUNT / HEMATOCRIT / HEMOGLOBIN / LEUKOCYTE COUNT / LYMPHOCYTE / MEAN CORPUSCULAR HEMOGLOBIN / MEAN CORPUSCULAR HEMOGLOBIN CONCENTRATION / MEAN CORPUSCULAR VOLUME / MONOCYTE / NEUTROPHIL / NUCLEATED RED BLOOD CELLS / PLATELET COUNT: tissue Blood; for ALANINE AMINOTRANSFERASE / ALBUMIN / ALKALINE PHOSPHATASE / ASPARTATE AMINOTRANSFERASE / BLOOD UREA NITROGEN / CARBON DIOXIDE / CHLORIDE / CHOLESTEROL / CREATINE PHOSPHOKINASE / CREATININE / GLUCOSE / LACTATE DEHYDROGENASE / LIPASE / PHOSPHORUS / POTASSIUM / SODIUM / TOTAL BILIRUBIN / TOTAL PROTEIN / URIC ACID: tissue Plasma
# [1] = 0 mg/kg, 72 h, dose level Control, time 3 day
# [2] = 0 mg/kg, 120 h, dose level Control, time 5 day
# [3] = 29 mg/kg, 72 h, dose level Low, time 3 day
structure (smiles),measurement,setting,value
C[C@@H]1CN(c2c(F)c(N)c3c(=O)c(C(=O)O)cn(C4CC4)c3c2F)C[C@H](C)N1 [SPARFLOXACIN],ABSOLUTE BASOPHIL,[1],0 CELLS/uL
same,ABSOLUTE EOSINOPHIL,[1],70.67 CELLS/uL
same,ABSOLUTE LYMPHOCYTE,[1],12761.5 CELLS/uL
same,ABSOLUTE MONOCYTE,[1],214.17 CELLS/uL
same,ABSOLUTE SEGMENTED NEUTROPHIL,[1],987 CELLS/uL
same,BASOPHIL,[1],0%
same,EOSINOPHIL,[1],0.5%
same,ERYTHROCYTE COUNT,[1],5.61 x10E6/uL
same,HEMATOCRIT,[1],35.22%
same,HEMOGLOBIN,[1],13.57 G/DL
same,LEUKOCYTE COUNT,[1],14.03 x10E3/uL
same,LYMPHOCYTE,[1],91%
same,MEAN CORPUSCULAR HEMOGLOBIN,[1],24.25 pg
same,MEAN CORPUSCULAR HEMOGLOBIN CONCENTRATION,[1],38.52 G/DL
same,MEAN CORPUSCULAR VOLUME,[1],62.9 fL
same,MONOCYTE,[1],1.5%
same,NEUTROPHIL,[1],7%
same,NUCLEATED RED BLOOD CELLS,[1],0 /100WBC
same,PLATELET COUNT,[1],997.5 x10E3/uL
same,ALANINE AMINOTRANSFERASE,[1],66.5 u/L
same,ALBUMIN,[1],3.98 G/DL
same,ALKALINE PHOSPHATASE,[1],350 u/L
same,ASPARTATE AMINOTRANSFERASE,[1],83.83 u/L
same,BLOOD UREA NITROGEN,[1],12.33 mg/dL
same,CARBON DIOXIDE,[1],30.33 mmol/L
same,CHLORIDE,[1],100 MEQ/L
same,CHOLESTEROL,[1],75 mg/dL
same,CREATINE PHOSPHOKINASE,[1],200 u/L
same,CREATININE,[1],0.17 mg/dL
same,GLUCOSE,[1],170 mg/dL
same,LACTATE DEHYDROGENASE,[1],89.33 u/L
same,LIPASE,[1],10.33 u/L
same,PHOSPHORUS,[1],10.88 mg/dL
same,POTASSIUM,[1],6.13 MEQ/L
same,SODIUM,[1],140.53 MEQ/L
same,TOTAL BILIRUBIN,[1],0.2 mg/dL
same,TOTAL PROTEIN,[1],5.67 G/DL
same,URIC ACID,[1],1.6 mg/dL
same,ABSOLUTE BASOPHIL,[2],0 CELLS/uL
same,ABSOLUTE EOSINOPHIL,[2],0 CELLS/uL
same,ABSOLUTE LYMPHOCYTE,[2],9526.67 CELLS/uL
same,ABSOLUTE MONOCYTE,[2],134.17 CELLS/uL
same,ABSOLUTE SEGMENTED NEUTROPHIL,[2],922.5 CELLS/uL
same,BASOPHIL,[2],0%
same,EOSINOPHIL,[2],0%
same,ERYTHROCYTE COUNT,[2],5.58 x10E6/uL
same,HEMATOCRIT,[2],34.78%
same,HEMOGLOBIN,[2],13.5 G/DL
same,LEUKOCYTE COUNT,[2],10.58 x10E3/uL
same,LYMPHOCYTE,[2],90.17%
same,MEAN CORPUSCULAR HEMOGLOBIN,[2],24.27 pg
same,MEAN CORPUSCULAR HEMOGLOBIN CONCENTRATION,[2],38.82 G/DL
same,MEAN CORPUSCULAR VOLUME,[2],62.48 fL
same,MONOCYTE,[2],1.17%
same,NEUTROPHIL,[2],8.67%
same,NUCLEATED RED BLOOD CELLS,[2],0.17 /100WBC
same,PLATELET COUNT,[2],807.17 x10E3/uL
same,ALANINE AMINOTRANSFERASE,[2],66.83 u/L
same,ALBUMIN,[2],3.73 G/DL
same,ALKALINE PHOSPHATASE,[2],286.17 u/L
same,ASPARTATE AMINOTRANSFERASE,[2],142.33 u/L
same,BLOOD UREA NITROGEN,[2],14.67 mg/dL
same,CARBON DIOXIDE,[2],25.5 mmol/L
same,CHLORIDE,[2],89.17 MEQ/L
same,CHOLESTEROL,[2],75.17 mg/dL
same,CREATINE PHOSPHOKINASE,[2],310.67 u/L
same,CREATININE,[2],0.2 mg/dL
same,GLUCOSE,[2],153 mg/dL
same,LACTATE DEHYDROGENASE,[2],1594 u/L
same,LIPASE,[2],14.83 u/L
same,PHOSPHORUS,[2],11.28 mg/dL
same,POTASSIUM,[2],8.46 MEQ/L
same,SODIUM,[2],126.88 MEQ/L
same,TOTAL BILIRUBIN,[2],0.37 mg/dL
same,TOTAL PROTEIN,[2],5.53 G/DL
same,URIC ACID,[2],1.52 mg/dL
same,ABSOLUTE BASOPHIL,[3],0 CELLS/uL
same,ABSOLUTE EOSINOPHIL,[3],0 CELLS/uL
same,ABSOLUTE LYMPHOCYTE,[3],14451.67 CELLS/uL
same,ABSOLUTE MONOCYTE,[3],45 CELLS/uL
same,ABSOLUTE SEGMENTED NEUTROPHIL,[3],1203.33 CELLS/uL
same,BASOPHIL,[3],0%
same,EOSINOPHIL,[3],0%
same,ERYTHROCYTE COUNT,[3],5.64 x10E6/uL
same,HEMATOCRIT,[3],35.07%
same,HEMOGLOBIN,[3],13.97 G/DL
same,LEUKOCYTE COUNT,[3],15.7 x10E3/uL
same,LYMPHOCYTE,[3],92%
same,MEAN CORPUSCULAR HEMOGLOBIN,[3],24.77 pg
same,MEAN CORPUSCULAR HEMOGLOBIN CONCENTRATION,[3],39.83 G/DL
same,MEAN CORPUSCULAR VOLUME,[3],62.2 fL
same,MONOCYTE,[3],0.33%
same,NEUTROPHIL,[3],7.67%
same,NUCLEATED RED BLOOD CELLS,[3],0.33 /100WBC
same,PLATELET COUNT,[3],1161 x10E3/uL
same,ALANINE AMINOTRANSFERASE,[3],67.67 u/L
same,ALBUMIN,[3],4 G/DL
same,ALKALINE PHOSPHATASE,[3],395.67 u/L
same,ASPARTATE AMINOTRANSFERASE,[3],96.33 u/L
same,BLOOD UREA NITROGEN,[3],9.67 mg/dL
same,CARBON DIOXIDE,[3],25 mmol/L
same,CHLORIDE,[3],102.33 MEQ/L
same,CHOLESTEROL,[3],76.33 mg/dL
same,CREATINE PHOSPHOKINASE,[3],757 u/L
same,CREATININE,[3],0.16 mg/dL
same,GLUCOSE,[3],172.67 mg/dL
same,LACTATE DEHYDROGENASE,[3],255.33 u/L
same,LIPASE,[3],10.33 u/L
same,PHOSPHORUS,[3],11.53 mg/dL
same,POTASSIUM,[3],6.56 MEQ/L
same,SODIUM,[3],142.23 MEQ/L
same,TOTAL BILIRUBIN,[3],0.13 mg/dL
same,TOTAL PROTEIN,[3],5.83 G/DL
same,URIC ACID,[3],1.93 mg/dL
